Entries after “also recorded” stand apart in the source; their conditions may differ.
Tests used:
[1] = tested on: human normal hematopoietic stem/progenitor cells (HSPCs); assay: Normal HSPC growth curves; format: cell-based; conditions: 1, 2 and 5 nM
Protocol: In order to evaluate the efficacy of Au:MTX in vitro, a human AML cell line THP-1 and human normal hematopoietic stem/progenitor cells (HSPCs) were used. HSPCs were isolated from umbilical cord blood via a CD34+ magnetic cell sorting (CD34 MicroBead Kit #130-046-702, Miltenyl Biotec, Auburn, Calif.). THP-1 cells were cultured in Roswell Park Memorial Institute 1640 (RPMI, Life Technologies, Carlsbad, Calif.) with 10% fetal bovine serum (FBS, Life Technologies), and HSPCs were cultured in Iscove's Modified Dulbecco's Medium (IMDM, Life Technologies) with 10% FBS and cytokines (10 ng/mL of SCF, TPO, and FLT3; 5 ng/mL of IL-3 and IL-6, PeproTech, Rockey Hill, N.J.), respectively, using 24-well cell culture plates with 0.7 mL of culture media per well (at 37° C. with 5% CO2 and >95% humidity). Cell viability was confirmed to be >95% using cell viability analyzer (Vi-Cell, Beckman Coulter, Brea, Calif.) immediately before the experiments. Then the cells were treated with phosphate buffer saline (PBS, Life Technologies), MTX, aqueous solutions of equimolar Au:MTX, and/or equimolar Au:FOL (folic acid-passivated Au nanoparticles). Cell cultures were split two-fold after 72 hours by replenishing each well with fresh media. Cell density and viability were measured every 24 hours using the cell viability analyzer. […]

[2] = tested on: human AML cell line THP-1; assay: THP-1 growth curves (cell density and viability); format: cell-based; conditions: 1, 2 and 5 nM
Protocol: In order to evaluate the efficacy of Au:MTX in vitro, a human AML cell line THP-1 and human normal hematopoietic stem/progenitor cells (HSPCs) were used. HSPCs were isolated from umbilical cord blood via a CD34+ magnetic cell sorting (CD34 MicroBead Kit #130-046-702, Miltenyl Biotec, Auburn, Calif.). […] Cell density and viability were measured every 24 hours using the cell viability analyzer. […]
The inventors characterized Au:MTX as drug delivery vehicles and evaluated in vitro therapeutic effects. Au:MTX was purified via sets of centrifugal precipitations, and the Au-to-MTX molar ratio (drug loading onto Au nanoparticle) was measured by elemental analyses (carbon-hydrogen-nitrogen analysis, or CHN; and inductively coupled plasma mass spectrometry, or ICP-MS). […] Au-to-MTX molar ratio was determined as [Au]:[MTX]=9.8:1, i.e. one nanoparticle on average carried ˜75 MTX molecules (assuming ˜1.44 Å as atomic radius of Au and uniform surface coverage, as illustrated in FIG. 1(c)). […] Drug delivery by Au:MTX was evaluated using a human AML cell line THP-1. […] Au:FOL, with the diameter 2.6±1.1 nm measured by TEM, is structurally similar to Au:MTX and was therefore used as an “Au nanoparticle without active drug” control. […]

[3] = Formation and TEM size of amine-passivated Au nanoparticles; format: physicochemical; conditions: size of the Au nanoparticle formed with the named amine compound as ligand, same synthesis conditions
Protocol: In a typical synthesis of water soluble nanoparticles Au:MTX, 5 μmol of HAuCl4 and 25 μmol of MTX were dispersed with brief sonication in 2 mL methanol in a tri-neck 15 mL flask on ice water (0° C.) bath under Ar purge. After 1 hour of stirring at 700 rpm, 0.5 mL of freshly prepared 0.11 M NaBH4 on ice was added drop-wise at 1200 rpm. After ˜1 hour, stirring speed was reduced to 700 rpm and kept for additional ˜30 minutes.
The reacted solution was centrifuged at 4° C. at 16,100×g for 15 minutes twice, with the addition of 4:1 (volume) mixture of methanol and water, and ethanol respectively. This set of two step centrifugation was repeated at least 3 times, and then the precipitate was re-dispersed in water to obtain aqueous solutions. The aqueous solution was further purified using 3 k ultra centrifugal filter (Millipore, Billerica, Mass.). […]

SMILES | nanoparticle (formation of monolayer-protected Au nanoparticles) [3] | HSPC growth [1] | THP-1 cell growth [2]
Nc1ncnc2c1ncn2[C@@H]1O[C@H](COP(=O)(O)OP(=O)(O)OP(=O)(O)O)[C@@H](O)[C@H]1O [adenosine triphosphate] | 2.1 ± 0.7 nm | – | –
Nc1ncnc2c1ncn2[C@@H]1O[C@H](CO)[C@@H](O)[C@H]1O [adenosine] | did not form | – | –
Nc1ccn([C@@H]2O[C@H](COP(=O)(O)OP(=O)(O)OP(=O)(O)O)[C@@H](O)[C@H]2O)c(=O)n1 [cytidine triphosphate] | 2.6 ± 0.9 nm | – | –
Nc1ncnc2c1ncn2[C@H]1C[C@H](O)[C@@H](CO)O1 [deoxyadenosine] | did not form | – | –
Nc1ccn([C@H]2C[C@H](O)[C@@H](CO)O2)c(=O)n1 [deoxycytidine] | did not form | – | –
Nc1nc2c(ncn2[C@H]2C[C@H](O)[C@@H](CO)O2)c(=O)[nH]1 [deoxyguanosine] | did not form | – | –
NCCc1ccc(O)c(O)c1 [dopamine, reference compound] | did not form | – | –
NCCCC[C@H](N)C(=O)O [lysine] | did not form | – | –
CSCC[C@H](N)C(=O)O [methionine] | did not form | – | –
COC(=O)CCC(NC(=O)c1ccc(N(C)Cc2cnc3nc(N)nc(N)c3n2)cc1)C(=O)OC (stereo not drawn) [methotrexate dimethyl ester] | 2.2 ± 0.6 nm | – | –
[H]/N=C(/N)N[C@H]1[C@H](O)[C@@H](O)[C@H](O[C@@H]2O[C@@H](C)[C@](O)(C=O)[C@H]2O[C@@H]2O[C@@H](CO)[C@H](O)[C@@H](O)[C@@H]2NC)[C@@H](N/C(N)=N\[H])[C@@H]1O [streptomycin, reference compound] | 2.5 ± 1.2 nm | – | –

Second part, led by results:

nanoparticle (formation of monolayer-protected Au nanoparticles) [3] | SMILES | HSPC growth [1] | THP-1 cell growth [2]
2.6 ± 0.7 nm | CN(Cc1cnc2nc(N)nc(N)c2n1)c1ccc(C(=O)N[C@@H](CCC(=O)O)C(=O)O)cc1 [MTX, methotrexate] | not significantly affected; also recorded: does not significantly affect | dose-dependent THP-1 growth suppression
2.3 ± 0.7 nm | Nc1ncnc2c1ncn2[C@@H]1O[C@H](COP(=O)(O)OP(=O)(O)O)[C@@H](O)[C@H]1O [adenosine diphosphate] | – | –
did not form | Nc1ncnc2c1ncn2[C@@H]1O[C@H](COP(=O)(O)O)[C@@H](O)[C@H]1O [adenosine monophosphate] | – | –
2.5 ± 0.8 nm | Nc1ccn([C@@H]2O[C@H](COP(=O)(O)OP(=O)(O)O)[C@@H](O)[C@H]2O)c(=O)n1 [cytidine diphosphate] | – | –
4.5 ± 2.8 nm | Nc1ccn([C@@H]2O[C@H](COP(=O)(O)O)[C@@H](O)[C@H]2O)c(=O)n1 [cytidine monophosphate] | – | –
3.3 ± 1.2 nm | COc1cccc2c1C(=O)c1c(O)c3c(c(O)c1C2=O)C[C@@](O)(C(=O)CO)C[C@@H]3O[C@H]1C[C@H](N)[C@H](O)[C@H](C)O1 [doxorubicin, reference compound] | – | –
4.2 ± 1.6 nm | Cc1cc2nc3c(=O)[nH]c(=O)nc-3n(C[C@H](O)[C@H](O)[C@H](O)COP(=O)(O)OP(=O)(O)OC[C@H]3O[C@@H](n4cnc5c(N)ncnc54)[C@H](O)[C@@H]3O)c2cc1C [flavin adenine dinucleotide (FAD), flavin adenine dinucleotide] | – | –
2.6 ± 1.1 nm | Nc1nc2ncc(CNc3ccc(C(=O)N[C@@H](CCC(=O)O)C(=O)O)cc3)nc2c(=O)[nH]1 [folic acid] | – | –
2.4 ± 1.0 nm | Nc1nc2c(ncn2[C@@H]2O[C@H](COP(=O)(O)OP(=O)(O)O)[C@@H](O)[C@H]2O)c(=O)[nH]1 [guanosine diphosphate] | – | –
2.6 ± 1.0 nm | Nc1nc2c(ncn2[C@@H]2O[C@H](COP(=O)(O)O)[C@@H](O)[C@H]2O)c(=O)[nH]1 [guanosine monophosphate] | – | –
2.3 ± 0.7 nm | Nc1nc2c(ncn2[C@@H]2O[C@H](COP(=O)(O)OP(=O)(O)OP(=O)(O)O)[C@@H](O)[C@H]2O)c(=O)[nH]1 [guanosine triphosphate] | – | –
2.7 ± 1.6 nm | Nc1nc2c(ncn2[C@@H]2O[C@H](CO)[C@@H](O)[C@H]2O)c(=O)[nH]1 [guanosine] | – | –
did not form | Cc1ncc(C[n+]2csc(CCO)c2C)c(N)n1 [thiamine] | – | –
3.1 ± 1.3 nm | Cc1ncc(C[n+]2csc(CCOP(=O)(O)OP(=O)(O)O)c2C)c(N)n1 [thyamine pyrophosphate] | – | –
